In patent publication US8980905B2, “Benzodioxole or benzodioxepine heterocyclic compounds as phosphodiesterase inhibitors” (Leo Pharma A/S, priority 2010, dated 2015):
Read-outs that look alike come from different tables or passages of the source.

Columns and labels:
[1] = target: Human recombinant PDE4 (Genbank accession no NM-006203) (Homo sapiens (Human), UniProt Q08499); assay: PDE4 Assay (SPA, cAMP cleavage); assay type: biochemical
Description: Human recombinant PDE4 (Genbank accession no NM_006203) was incubated for 1 hour, with the test compound at concentrations up to 10 μM, with cAMP (1×10^-5M), and with a low amount (0.021 MBq) of radioactively labelled cAMP. At the end of the incubation, the cleavage of the substrate was evaluated by the binding of the AMP product to SPA beads, which generate chemoluminescence when bound to the radioactive tracer. The AMP product inhibited the binding of the radioactive tracer to the beads, and the luminescent signal was competed.
The results were calculated as the molar concentrations resulting in 50% inhibition of the substrate cleavage compared to controls samples, and are expressed as IC50 (M).

[2] = In vivo pharmacokinetic analyses in rat; settings: serum, PO dosing 5 mg/kg, read-out: Serum Cmax of parent compound
Description: One rat is dosed orally (5 mg/kg—dissolved in DMSO/H2O/propylenglycol [1:5:4]) and blood samples are taken from the sublingual venous plexus at 30 min, 1 h, 2 h, 4 h and 6 h. Blood samples are taken in BD Vacutainer SST serum separation tubes, serum is isolated by centrifugation, transferred to micronics tubes and subsequently analysed.
Mass spectrometer (API5000 series) parameters are optimised to analyse for the specific compounds and test injections are performed to confirm the validity of the established generic chromatography method. The generic method is based on fast gradient (2.5 min) analysis on C18 column with mobile phases consisting methanol, ammonium acetate, formic acid and water.
Standards are prepared in rat serum to cover the analytical range 0.1 to 300 ng/ml. Standards, blank serum and study samples are applied to 96 deepwell plate and proteins are precipitated by addition of acetonitrile containing internal standard. Samples are analysed on LC-MS/MS usually overnight. Integration and quantification is performed on ration between analyte and internal standard using Analyst software version 1.5. Pharmacokinetic parameters are calculated using a standardised Excel spreadsheet.

[3] = human recombinant PDE4, 1 hour incubation, cAMP 1x10-5 M, read-out: IC50 (PDE4)

Sequence of Human recombinant PDE4 (Genbank accession no NM-006203) (Q08499 other isoform, or with tags, fused parts or gaps): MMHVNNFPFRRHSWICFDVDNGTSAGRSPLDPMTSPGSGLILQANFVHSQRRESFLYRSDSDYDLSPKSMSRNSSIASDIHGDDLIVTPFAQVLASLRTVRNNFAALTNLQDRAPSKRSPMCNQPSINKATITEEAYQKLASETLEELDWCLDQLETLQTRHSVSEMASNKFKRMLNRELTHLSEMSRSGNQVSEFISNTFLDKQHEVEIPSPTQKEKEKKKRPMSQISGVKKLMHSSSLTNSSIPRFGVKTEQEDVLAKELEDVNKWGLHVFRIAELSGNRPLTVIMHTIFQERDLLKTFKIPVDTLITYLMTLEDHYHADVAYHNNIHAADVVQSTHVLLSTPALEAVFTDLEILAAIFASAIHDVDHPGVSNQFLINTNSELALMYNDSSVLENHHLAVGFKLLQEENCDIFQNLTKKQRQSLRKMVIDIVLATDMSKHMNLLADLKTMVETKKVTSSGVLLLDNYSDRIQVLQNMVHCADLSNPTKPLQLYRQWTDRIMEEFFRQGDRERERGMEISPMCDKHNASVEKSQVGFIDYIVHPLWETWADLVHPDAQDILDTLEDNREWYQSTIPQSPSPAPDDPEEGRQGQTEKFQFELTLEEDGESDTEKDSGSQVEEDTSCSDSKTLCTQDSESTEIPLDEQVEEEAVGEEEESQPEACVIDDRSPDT

Compound	IC50 [1, 3] [nM]	Cmax [2] [ng/mL]	IC50 ([1]; stated in text of example 15, read-out: PDE4 activity) [nM]
O=C(Cc1c(Cl)cncc1Cl)c1ccc(OC(F)F)c2c1OC1(CCOCC1)O2 [Compound 105, 2-(3,5-Dichloropyridine-4-yl)-1-(7-difluoromethoxy-2′,3′,5′,6′-tetrahydro-spiro[1,3-benzodioxole-2,4′-(4H)-pyran]-4-yl)ethanone]	7	< 3	
O=C(Cc1c(Cl)c[n+]([O-])cc1Cl)c1ccc(OC(F)F)c2c1OC1(CCS(=O)(=O)CC1)O2 [Compound 108, 2-(3,5-Dichloro-1-oxido-pyridine-4-yl)-1-(7-difluoromethoxy-2′,3′,5′,6′-tetrahydro-spiro[1,3-benzodioxole-2, 4′-(4H)-thiopyran-1′,1′-dioxide]-4-yl)ethanone]	16		
O=C(Cc1c(Cl)cncc1Cl)c1ccc(O)c2c1OC1(CCOCC1)O2 [Compound 403, 2-(3,5-Dichloropyridine-4-yl)-1-(7-hydroxy-2′,3′,5′,6′-tetrahydro-spiro[1,3-benzodioxole-2,4′-(4H)-pyran]-4-yl)ethanone]			5000
O=C(Nc1c(Cl)c[n+]([O-])cc1Cl)c1ccc(OC(F)F)c2c1OC1(CCS(=O)(=O)CC1)O2 [Compound 111, N-(3,5-dichloro-1-oxo-4-pyridyl)-7-(difluoromethoxy)-1′,1′-dioxo-spiro[1,3-benzodioxole-2,4′-thiane]-4-carboxamide]	106		
O=C(Cc1c(Cl)cncc1Cl)c1ccc(OC(F)F)c2c1OC1(CCS(=O)(=O)CC1)O2 [Compound 109, 2-(3,5-Dichloropyridine-4-yl)-1-(7-difluoromethoxy-2′,3′,5′,6′-tetrahydro-spiro[1,3-benzodioxole-2, 4′-(4H)-thiopyran-1′,1′-dioxide]-4-yl)ethanone]	13		

Further lines, results first:

IC50 [1, 3] [nM]	Cmax [2] [ng/mL]	IC50 ([1]; stated in text of example 15, read-out: PDE4 activity) [nM]	Compound
4			O=C(Cc1c(Cl)c[n+]([O-])cc1Cl)c1ccc(OC(F)F)c2c1OCC1(CCOCC1)CO2 [Compound 104, 2-(3,5-Dichloro-1-oxido-pyridin-4-yl)-1-{9-difluoromethoxy-spiro[2H-1,5-benzodioxepin-3(4H),4′-tetrahydropyran]-6-yl}ethanone]
6			O=C(Cc1c(Cl)cncc1Cl)c1ccc(OC(F)F)c2c1OCC1(COC1)CO2 [Compound 101, 2-(3,5-Dichloropyridin-4-yl)-1-{9-difluoromethoxy-spiro[2H-1,5-benzodioxepin-3(4H),3′-oxetane]-6-yl}ethanone]
2			O=C(Nc1c(Cl)cncc1Cl)c1ccc(OC(F)F)c2c1OC1(CCSCC1)O2 [Compound 110, N-(3,5-Dichloro-4-pyridyl)-7-Difluoromethoxy-2′,3′,5′,6′-tetrahydro-spiro[1,3-benzodioxole-2,4′-(4H)-thiopyran]-4-carbamide]
5	133		O=C(Cc1c(Cl)c[n+]([O-])cc1Cl)c1ccc(OC(F)F)c2c1OC1(CCOCC1)O2 [Compound 106, 2-(3,5-Dichloro-1-oxido-pyridine-4-yl)-1-(7-difluoromethoxy-2′,3′,5′,6′-tetrahydro-spiro[1,3-benzodioxole-2,4′-(4H)-pyran]-4-yl)ethanone]
6			O=C(Cc1c(Cl)cncc1Cl)c1ccc(OC(F)F)c2c1OCC1(CCOCC1)CO2 [Compound 103, 2-(3,5-Dichloropyridin-4-yl)-1-{9-difluoromethoxy-spiro[2H-1,5-benzodioxepin-3(4H),4′-tetrahydropyran]-6-yl}ethanone]
